In the NIST ThermoML archive (doi:10.1021/je900691n):

Assay: xn = mol fraction of the nth substance listed
Settings: Liquid, Pycnometric method

COC(=O)OC [dimethyl carbonate] + O=C=O
Settings	mass density [kg/m3]
313.15 K, 12790 kPa, x1 = 0.1484	951
313.15 K, 12900 kPa, x1 = 0.0242	816
313.15 K, 12950 kPa, x1 = 0.0481	856
313.15 K, 13250 kPa, x1 = 0.118	940
313.15 K, 13270 kPa, x1 = 0.0242	823
313.15 K, 13310 kPa, x1 = 0.1484	955
313.15 K, 13450 kPa, x1 = 0.0481	863
313.15 K, 13580 kPa, x1 = 0.086	911
313.15 K, 13640 kPa, x1 = 0.0242	828
313.15 K, 13730 kPa, x1 = 0.118	943
313.15 K, 13790 kPa, x1 = 0.1484	957
313.15 K, 13960 kPa, x1 = 0.0242	833
313.15 K, 13980 kPa, x1 = 0.0481	869
313.15 K, 14120 kPa, x1 = 0.086	915
313.15 K, 14140 kPa, x1 = 0.0242	836
313.15 K, 14270 kPa, x1 = 0.118	947
313.15 K, 14430 kPa, x1 = 0.1484	961
313.15 K, 14560 kPa, x1 = 0.0242	842
313.15 K, 14620 kPa, x1 = 0.0481	877
313.15 K, 14750 kPa, x1 = 0.086	920
313.15 K, 14950 kPa, x1 = 0.0242	847
313.15 K, 15100 kPa, x1 = 0.1484	965
313.15 K, 15210 kPa, x1 = 0.0481	882
313.15 K, 15220 kPa, x1 = 0.068	924
313.15 K, 15230 kPa, x1 = 0.0242	851
313.15 K, 15650 kPa, x1 = 0.1484	968
313.15 K, 15900 kPa, x1 = 0.0481	890
313.15 K, 15930 kPa, x1 = 0.068	930
313.15 K, 16400 kPa, x1 = 0.068	933
313.15 K, 16470 kPa, x1 = 0.1484	972
317.85 K, 8660 kPa, x1 = 0.0242	476
317.85 K, 8710 kPa, x1 = 0.0242	485
317.85 K, 8720 kPa, x1 = 0.0242	490
317.85 K, 8750 kPa, x1 = 0.0242	498
317.85 K, 8780 kPa, x1 = 0.0242	506
317.85 K, 8820 kPa, x1 = 0.0242	517
317.85 K, 8880 kPa, x1 = 0.0242	529
317.85 K, 8930 kPa, x1 = 0.0242	542
317.85 K, 9000 kPa, x1 = 0.0242	555
317.85 K, 9070 kPa, x1 = 0.0242	569
317.85 K, 9150 kPa, x1 = 0.0242	583
317.85 K, 9250 kPa, x1 = 0.0242	599
317.85 K, 9350 kPa, x1 = 0.0242	611
317.85 K, 9500 kPa, x1 = 0.0242	628
317.85 K, 9710 kPa, x1 = 0.0242	646
317.85 K, 9910 kPa, x1 = 0.0242	663
318.15 K, 7340 kPa, x1 = 0.1484	884
318.15 K, 7630 kPa, x1 = 0.118	856
318.15 K, 7820 kPa, x1 = 0.1484	889
318.15 K, 7850 kPa, x1 = 0.118	859
318.15 K, 8020 kPa, x1 = 0.086	802
318.15 K, 8190 kPa, x1 = 0.118	864
318.15 K, 8270 kPa, x1 = 0.1484	894
318.15 K, 8410 kPa, x1 = 0.086	812
318.15 K, 8550 kPa, x1 = 0.0481	683
318.15 K, 8610 kPa, x1 = 0.118	870
318.15 K, 8700 kPa, x1 = 0.0481	693
318.15 K, 8780 kPa, x1 = 0.1484	899
318.15 K, 8830 kPa, x1 = 0.086	820
318.15 K, 8880 kPa, x1 = 0.0481	706
318.15 K, 9130 kPa, x1 = 0.118	876
318.15 K, 9140 kPa, x1 = 0.0481	721
318.15 K, 9160 kPa, x1 = 0.086	827
318.15 K, 9300 kPa, x1 = 0.1484	904
318.15 K, 9450 kPa, x1 = 0.0481	735
318.15 K, 9580 kPa, x1 = 0.118	882
318.15 K, 9760 kPa, x1 = 0.0481	748
318.15 K, 9800 kPa, x1 = 0.1484	908
318.15 K, 9810 kPa, x1 = 0.086	838
318.15 K, 10180 kPa, x1 = 0.118	889
318.15 K, 10200 kPa, x1 = 0.0481	758
318.15 K, 10260 kPa, x1 = 0.086	845
318.15 K, 10270 kPa, x1 = 0.1484	912
318.15 K, 10720 kPa, x1 = 0.1484	916
318.15 K, 10740 kPa, x1 = 0.0481	777
318.15 K, 10750 kPa, x1 = 0.118	895
318.15 K, 10820 kPa, x1 = 0.086	853
318.15 K, 11190 kPa, x1 = 0.086	858
318.15 K, 11230 kPa, x1 = 0.1484	920
318.15 K, 11250 kPa, x1 = 0.0481	789
318.15 K, 11280 kPa, x1 = 0.118	900
318.15 K, 11720 kPa, x1 = 0.1484	924
318.15 K, 11740 kPa, x1 = 0.086	865
318.15 K, 11770 kPa, x1 = 0.0481	800
318.15 K, 11800 kPa, x1 = 0.118	905
318.15 K, 12230 kPa, x1 = 0.086	871
318.15 K, 12240 kPa, x1 = 0.0481	809
318.15 K, 12260 kPa, x1 = 0.1484	928
318.15 K, 12280 kPa, x1 = 0.118	909
318.15 K, 12690 kPa, x1 = 0.086	876
318.15 K, 12720 kPa, x1 = 0.0481	818
318.15 K, 12770 kPa, x1 = 0.118	913
318.15 K, 12820 kPa, x1 = 0.1484	932
318.15 K, 13270 kPa, x1 = 0.086	882
318.15 K, 13280 kPa, x1 = 0.0481	826
318.15 K, 13290 kPa, x1 = 0.118	918
318.15 K, 13410 kPa, x1 = 0.1484	936
318.15 K, 13730 kPa, x1 = 0.0481	833
318.15 K, 13750 kPa, x1 = 0.118	922
318.15 K, 13840 kPa, x1 = 0.086	888
318.15 K, 13900 kPa, x1 = 0.1484	939
318.15 K, 14240 kPa, x1 = 0.0481	841
318.15 K, 14240 kPa, x1 = 0.118	925
318.15 K, 14290 kPa, x1 = 0.086	893
318.15 K, 14390 kPa, x1 = 0.1484	942
318.15 K, 14710 kPa, x1 = 0.0481	847
318.15 K, 14720 kPa, x1 = 0.118	929
318.15 K, 14830 kPa, x1 = 0.086	898
318.15 K, 15140 kPa, x1 = 0.1484	947
318.15 K, 15250 kPa, x1 = 0.118	933
318.15 K, 15280 kPa, x1 = 0.086	902
318.15 K, 15300 kPa, x1 = 0.0481	854
318.15 K, 15760 kPa, x1 = 0.086	906
318.15 K, 15770 kPa, x1 = 0.1484	950
318.15 K, 15820 kPa, x1 = 0.118	937
318.15 K, 16250 kPa, x1 = 0.0481	865
318.15 K, 16260 kPa, x1 = 0.118	940
318.15 K, 16300 kPa, x1 = 0.086	910
318.15 K, 16420 kPa, x1 = 0.1484	955
323.15 K, 7960 kPa, x1 = 0.1484	862
323.15 K, 8290 kPa, x1 = 0.118	829
323.15 K, 8310 kPa, x1 = 0.1484	866
323.15 K, 8540 kPa, x1 = 0.118	833
323.15 K, 8690 kPa, x1 = 0.086	762
323.15 K, 8770 kPa, x1 = 0.1484	872
323.15 K, 8880 kPa, x1 = 0.086	769
323.15 K, 8960 kPa, x1 = 0.118	840
323.15 K, 9020 kPa, x1 = 0.0242	394
323.15 K, 9080 kPa, x1 = 0.0242	401
323.15 K, 9120 kPa, x1 = 0.0242	408
323.15 K, 9170 kPa, x1 = 0.0242	417
323.15 K, 9180 kPa, x1 = 0.0481	607
323.15 K, 9220 kPa, x1 = 0.086	779
323.15 K, 9230 kPa, x1 = 0.0242	427
323.15 K, 9250 kPa, x1 = 0.1484	877
323.15 K, 9260 kPa, x1 = 0.0481	617
323.15 K, 9280 kPa, x1 = 0.0242	436
323.15 K, 9310 kPa, x1 = 0.118	845
323.15 K, 9350 kPa, x1 = 0.0242	447
323.15 K, 9410 kPa, x1 = 0.0242	458
323.15 K, 9410 kPa, x1 = 0.0481	638
323.15 K, 9480 kPa, x1 = 0.0242	470
323.15 K, 9550 kPa, x1 = 0.0242	482
323.15 K, 9570 kPa, x1 = 0.0481	650
